{
  "source": "patent US20250177532A1",
  "about": "“TEMPERATURE-SENSITIVE HYDROGEL FOR CANCER TREATMENT CAPABLE OF PHOTOTHERMAL THERAPY AND PREPARATION METHOD THEREFOR” (KOREA NATIONAL UNIVERSITY OF TRANSPORTATION …, priority 2022, published 2025)",
  "tested_on": "4T1 cells",
  "experiment": "Photothermal effect in vitro: cell viability by WST-1 assay with/without near-infrared irradiation",
  "details": "Triton X 0.1%",
  "protocol": "To evaluate photothermal effect in in vitro, cells were seeded (1×10^4 cells/well) in 96 well-plate and incubated for 12 h. […] Then, the well was irradiated with near-infrared light for 5 min and incubated again for 24 hours. Then, cell viability was measured using WST-1 assay.",
  "data": [
    {"substance": "Triton X", "values": [
      {"measurement": "Cell viability (%)", "setting": "control of Table 1 (GNS experiment, near-infrared irradiation)", "result": 5.02, "unit": "%"},
      {"measurement": "Cell viability (%)", "setting": "control of Table 2, NIR irradiated", "result": 10.58, "unit": "%"},
      {"measurement": "Cell viability (%)", "setting": "control of Table 2, no NIR", "result": 10.23, "unit": "%"}
    ]}
  ]
}
